Experiments:
[1] = tested on: Mouse fibroblast L929 cells
Experimental: A mitochondrial stress test was performed in a device of the present invention. Mouse fibroblast L929 cells were cultivated in the wells of a micro-titer plate at 37° C. and provided with fresh media in time intervals of 20 min.
A measurement cycle involved addition of following compounds at the indicated time points:
t=60 min: Addition of 1 μM oligomycin A
t=140 min: Addition of 1 μM antimycin A and 1 μM rotenone

[2] = tested on: L929 mouse fibroblast cells; experiment: Toxicology assay: OCR, ECAR and morphology under SLS; type: cell-based
Experimental: L929 mouse fibroblast cells were investigated under the influence of the reference toxicant sodium lauryl sulfate (SLS). The test settings included 12 h of pretreatment and 12 h of treatment with different concentrations of SLS. Throughout the assay, oxygen consumption and extracellular acidification, as well as morphology based on regular microscope images, were recorded.

[3] = 77.8 μg/ml SLS, first 3 h after SLS addition

SMILES	Maximum respiration (OCR) as % of the basal respiration ([1]; 0.13 μM and 0.25 μM FCCP added at t=100 min after 1 μM oligomycin A) [%]	reserve capacity ([1]; maximum respiration under FCCP minus basal respiration) [%]	outcome after continuation of the treatment (12 h treatment) ([2]; 77.8 μg/ml SLS, continued treatment)	acidification (ECAR) [2, 3]	oxygen uptake (OCR) [2, 3]	OCRs and ECARs dose and time dependence ([2]; 77.8 μg/ml and 778 μg/ml SLS)
N#CC(C#N)=NNc1ccc(OC(F)(F)F)cc1 [FCCP, carbonyl cyanide p-(trifluoromethoxy) phenylhydrazone]	131	31				
CCCCCCCCCCCCOS(=O)(=O)[O-].[Na+] [SLS, sodium lauryl sulfate]			cell death and a drop in all metabolic values	increases	reduced	clear dose- and time-dependent reaction

From US20230204569A1, “ANALYSIS DEVICE” (INCYTON GMBH, priority 2020, published 2023)
